Source: US20220226484A1, “THERAPEUTIC PEPTIDES” (COHBAR, INC., priority 2019, published 2022)
Positions of bridges follow the written chain, without caps; N, C: chain ends. Non-standard residues stand in square brackets, D forms with d. Primed or numbered codes have the meaning given here. Chains are numbered I, II in the order given. No end group written: not given here. PEG12′ = not defined here

B1: BDNF: positive control, BDNF (50 ng/ml) (protein, UniProt P23560 19-247, looked up)
Neurotrophic factor BDNF …: APMKEANIRGQGGLAYPGVRTHGTLESVNGPKAGSRGLTSLADTFEHVIEELLDEDQKVRPNEENNKDADLYTSRVMLSSQVPLEPPLLFLLEEYKNYLDAANMSMRVRRHSDPARRGELSVCDSISEWVTAADKKTAVDMSGGTVTVLEKVPVSKGQLKQYFYETKCNPMGYTKEGCRGIDKRHWNSQCRTTQSYVRALTMDSKKRIGWRFIRIDTSCVCTLTIKRGR

What was measured:
Type in all cases: cell-based
C2C12 Mouse Myoblasts = assay: Glucose utilization; settings: metformin 1 mM
Method: The effect of the peptides on glucose metabolism can be assessed using an assay of glucose utilization in cultured cultured cells such as mouse myoblasts. Peptides were initially prepared as 10 mM stock in DMSO and used at a final concentration of 10 μM (0.1% DMSO). C2C12 mouse myoblast cell line was purchased from American Type Culture Collection (Manassas, Va.). C2C12 cultures were maintained at 37° C. in a humidified atmosphere of 5% CO2/95% air with medium changes every second day. C2C12 cells were grown in DMEM (1 g/L glucose) supplemented with 10% FBS with 100 IU/ml penicillin and 100 μg/ml streptomycin. C2C12 cells were seeded at 7,000 cells per well on 96-well plates and cultured to confluence. Once the cell reached confluence the media was changed to DMEM (1 g/L glucose) supplemented with 2% HS with 100 IU/ml penicillin and 100 μg/ml streptomycin and maintained at 37° C. in a humidified atmosphere of 5% CO2/95% air. 5 days post-induction of differentiation fresh DMEM (1 g/L glucose) supplemented with 2% HS with 100 IU/ml penicillin and 100 μg/ml streptomycin was added to cultures. Cells were maintained at 37° C. in a humidified atmosphere of 5% CO2 and 95% air for 5 hours. After 5 hours test peptides at 10 μM or controls (0.5 mM or 1 mM metformin in 1% DMSO) prepared in fresh differentiation medium were added to cells and the cultures were maintained at 37° C. in a humidified atmosphere of 5% CO2/95% air for 18-22 hours. At the end of the incubation culture media was removed from the cells and the remaining glucose concentration was measured using a Glucose Assay kit (Abcam) according to the manufacturer's instructions, using a Cytation 3 plate reader at 570 nm (BioTek, Winooski, Vt.). Glucose concentrations in the medium were calculated relative to 0.1% DMSO treated control cells. The relative standard deviation of the result for the 0.1% DMSO treated control was <20%. Metformin was used as a positive control for reduction of glucose levels (increased glucose utilization glucose levels for treatment with metformin (1 mM) treatment were <20% of the 0.1% DMSO treated control value. The results are reported in Table 7.

3T3-L1 Mouse Adipocytes = assay: Insulin-dependent effect on free fatty acid levels in cultured mouse adipocytes; settings: 3 hours; for Free Fatty Acid Levels, MEAN % ISO, +Insulin: peptide 10 μM + insulin 0.25 nM, percent of isoproterenol (0.1 nM)+insulin (0.25 nM); for Free Fatty Acid Levels, MEAN % ISO, −Insulin: peptide 10 μM alone, percent of isoproterenol (0.1 nM) treated control cells
Method: The effect of the peptides on fatty acid metabolism was assessed in the absence and presence of insulin using an assay of free fatty acid levels in cultured cells such as mouse adipocytes. Peptides were initially prepared as 10 mM stock in DMSO and used at a final concentration of 10 μM (0.1% DMSO). […] Insulin (0.25 nM) was used as a partial inhibitor and insulin (10 nM) was used as a potent inhibitor of isoproterenol stimulated fatty acid production. Mouse 3T3-L1 cells purchased from ZenBio (Research Triangle Park, N.C.) were seeded at 3,000 cells per well on 96-well plates in Pre-Adipocyte Medium (Zen-Bio) and grown to confluence at 37° C. in a humidified atmosphere of 5% CO2/95% air. Two days after confluence, cells were placed in Adipocyte Differentiation Medium (Zen-Bio) and cultured for three additional days at 37° C. in a humidified atmosphere of 5% CO2/95% air. The culture medium was then partially replaced with Adipocyte Maintenance Medium (Zen-Bio) and the cells maintained at 37° C. in a humidified atmosphere of 5% CO2/95% air with partial medium replacement every other day. At 12 day of differentiation, 96-well cultures were transferred to Adipocyte Maintenance Medium without insulin and placed at 37° C. in a humidified atmosphere of 5% CO2/95% air for two days. Following this incubation period, the medium was removed from 14 day differentiated cultures and replaced with Assay Buffer (Zen-Bio) containing peptides (10 μM), insulin (0.25 nM or 10 nM), isoproterenol (0.1 nM) as appropriate. […] isoproterenol was added to all wells except untreated controls. Insulin at 0.1 nM and 10 nM was added to control wells. Peptides (10 μM) in the absence or presence of insulin (0.25 nM) were added to test wells. Cells in the presence of compounds were placed at 37° C. in a humidified atmosphere of 5% CO2/95% air for 3 hours. At the end of the final 3 h incubation, conditioned assay buffer was removed from each well and place in a fresh 96-well plate for quantitation of free fatty acid content. Free fatty acid concentrations in the assay buffer samples were determined using a Free Fatty Acid Assay kit (Zen-Bio) according to the manufacturer's instructions using a Cytation 3 plate reader at 540 nm (BioTek, Winooski, VD. Absorbance values were corrected for untreated background and expressed as a percent of isoproterenol (0.1 nM) treated control cells for peptides alone or isoproterenol (0.1 nM)+insulin (0.25 nM) for peptides in presence of insulin (0.25 nM). Treatment with isoproterenol […] alone was used as the free fatty acid level stimulatory control. The relative standard deviation of the isoproterenol control was <10%. […] Free fatty acid levels for insulin (10 nM) treatment were <5% of the isoproterenol control value. Free fatty acid levels for insulin (0.25 nM) treatment were 60-80% of the isoproterenol control value.

[1] = test system: WI-38 cells (human fetal lung fibroblast cells); assay: Fibroblast-to-myofibroblast transition assay, pro-collagen I alpha 1 expression; settings: 10 μM peptide and 5 ng/ml TGF-β, 48 h, cell lysates
Method: The effect of the peptides on fibrosis can be assessed in vitro using a fibroblast-to-myofibroblast transition (FMT) assay and monitoring pro-collagen I alpha 1 expression produced by cultured cells such as human fetal lung fibroblast cells. Peptides were initially prepared as 10 mM stock solutions in DMSO or 1 mM stock in H2O and were used at a final concentration of 10 μM (0-0.1% DMSO). Transforming Growth Factor beta (TGF-β) was used as a potent inducer of FMT as measured by increased pro-collagen I alpha 1 expression. Human WI-38 cell line was purchased from American Type Culture Collection (Manassas, Va.). WI-38 cells were seeded in complete medium (DMEM/high glucose (4 g/L)+10% Fetal Bovine Serum+1% penicillin/streptomycin) at 40,000 cells/well on 48-well plates and placed at 37° C. in a humidified atmosphere of 5% CO2/95% air. The next day, the medium was removed, cells were rinsed twice with HBSS, and the medium replaced with Serum Restricted Medium (DMEM/high glucose (4 g/L)+0.2% Fetal Bovine Serum+1% penicillin/streptomycin). The cultures were placed at 37° C. in a humidified atmosphere of 5% CO2/95% air overnight. Following 24 h in Serum Restricted Medium, the medium was removed, and the following was added: fresh Serum Restricted Medium alone (no TGF-β control); fresh Serum Restricted Medium containing 5 ng/ml TGF-β (TGF-β control); or fresh Serum Restricted Medium containing 10 μM peptide and 5 ng/ml TGF-β. Cells were incubated for 48 h at 37° C. in a humidified atmosphere of 5% CO2/95% air, washed twice with cold HBSS and immediately lysed. Lysis and determination of pro-collagen I alpha 1 concentrations in the cell lysates were performed using a Pro-Collagen I Alpha 1 ELISA kit (Abcam; Cambridge, Mass.) according to the manufacturer's instructions; absorbance was measured using a Cytation 3 plate reader at 450 nm (BioTek, Winooski, Vt.).

H4IIE Rat Hepatoma Cells = assay: Insulin-dependent effect on glucose production by cultured rat liver cells; settings: 24 hour; for Glucose Levels, MEAN % Control, +Insulin: peptide 10 μM + insulin 800 pM, percent of insulin (800 pM); for Glucose Levels, MEAN % Control, −Insulin: peptide 10 μM alone, percent of untreated control cells
Method: The effect of the peptides on glucose production was assessed in the absence and presence of insulin using an assay of glucose levels in cultured cells such as rat hepatocytes. Peptides were initially prepared as 10 mM stock in DMSO and used at a final concentration of 10 μM (0.1% DMSO). Insulin (800 pM) was used as a partial inhibitor of glucose production. H4-IIE cells purchased from ATCC (Manassas, Va.) were seeded at 100,000 cells/well in standard medium (DMEM/high glucose+10% FBS+1× Glutamax+antibiotics) on 96-well plates and allowed to adhere overnight at 37° C. in a humidified atmosphere of 5% CO2/95% air. Approximately 24 h after seeding, the medium was removed, cells rinsed with glucose free DMEM, and Glucose Production Medium (glucose free DMEM+2 mM sodium pyruvate+10 mM sodium lactate) was added. The cultures were placed at 37° C. in a humidified atmosphere of 5% CO2/95% air overnight. The next morning, the medium was removed and fresh Glucose Production Medium containing compounds was added. Insulin at 800 pM was added to control wells. Peptides (10 μM) in the absence or presence of insulin (800 pM) were added to test wells. Cells in the presence of compounds were placed at 37° C. in a humidified atmosphere of 5% CO2/95% air overnight. After 24 hour incubation, conditioned medium from each well was transferred to a fresh 96-well plate for quantitation of glucose content. Quantitation of glucose levels was determined using an Amplex Red Glucose Assay kit (Abacm; Cambridge, Mass.) according to the manufacturer's instructions using a Cytation 3 plate reader at 570 nm (BioTek, Winooski, Vt.). Absorbance values were expressed as a percent of untreated control cells (maximum glucose production) for peptide alone samples or insulin (800 pM) for peptides in the presence of insulin (800 pM. Glucose levels for insulin (800 pM) treatment were ˜80-90% of the untreated control values. The results are reported in Table 15.

[2] = test system: Rat primary cortical neurons; assay: Neuroprotection against Aβ (1-42) toxicity in cultured neurons; settings: Aβ (1-42) 20 μM + BDNF 50 ng/mL, 24 hours
Method: Rat primary cortical neurons were collected and cultured by methods well known in the art (Singer et al., 1999 and Callizot et al., 2013). The cells were seeded at a density of 25,000 per well in 96-well plates precoated with poly-L-lysine and cultured at 37° C. in an air (95%)-CO2 (5%) incubator. The medium was changed every 2 days. The cortical neurons were treated after 11 days of culture. The A13(1-42) was prepared using the procedure described by Callizot et al., 2013 to ensure monomeric peptide. Compounds and the positive control, BDNF (50 ng/ml), were dissolved in culture medium and then pre-incubated with primary cortical neurons for 1 hour before addition of A13(1-42) (20 μM). After 24 hours of treatment, the cell culture supernatant was removed and the cortical neurons were fixed by a cold solution of ethanol (95%) and acetic acid (5%) for 5 min at −20° C. After permeabilization with 0.1% of saponin, cells were incubated for 2 hours with mouse monoclonal antibody anti-microtubule-associated-protein 2 (MAP-2) at a dilution of 1/400 in PBS containing 1% fetal calf serum and 0.1% of saponin to stain cell bodies and neurites.
This antibody was detected with Alexa Fluor 488 goat anti-mouse IgG at the dilution 1/400 in PBS containing 1% FCS, 0.1% saponin, for 1 hour at room temperature. For each condition, images were obtained using ImageXpress (Molecular Devices) with 20× magnification. The total number of cells and extent of neurite network was determined using Custom Module Editor (Molecular Devices).

Molecule | Procollagen I Alpha 1 Mean (SEM) [1] | Free Fatty Acid Levels, MEAN % ISO, +Insulin (3T3-L1 Mouse Adipocytes) [%] | Free Fatty Acid Levels, MEAN % ISO, −Insulin (3T3-L1 Mouse Adipocytes) [%] | Glucose Levels, MEAN % Control, +Insulin (H4IIE Rat Hepatoma Cells) [%] | Glucose Levels, MEAN % Control, −Insulin (H4IIE Rat Hepatoma Cells) [%] | other results
CN(C)C(=N)N=C(N)N [metformin, reference compound] | – | – | – | – | – | glucose levels, % of the 0.1% DMSO treated control value (C2C12 Mouse Myoblasts): < 20%
RVIRMCLNVGLLGEL(dA)G [SEQ ID NO: 27] (chain 1 RVIRMCLNVGLLGEL[dA]G; chain 2 RVIRMCLNVGLLGEL[dA]G; disulfide I:6-II:6) | 4120 (677) pg/mL | – | – | – | – | Free Fatty Acid Levels, MEAN % ISO, +Insulin (3T3-L1 Mouse Adipocytes; listed as 27): 28.2%; Free Fatty Acid Levels, MEAN % ISO, −Insulin (3T3-L1 Mouse Adipocytes; listed as 27): 94.5%; Glucose Levels, MEAN % Control, +Insulin (H4IIE Rat Hepatoma Cells; listed as 27): 54.3%; Glucose Levels, MEAN % Control, −Insulin (H4IIE Rat Hepatoma Cells; listed as 27): 108%
RVIRMCLNVGLNGEL(dA)E (RVIRMCLNVGLNGEL[dA]E) [SEQ ID NO: 20] | 4680 (377) pg/mL | 97.5 | 102 | 75.1 | 110 | –
{PEG12}KRVIRMCLGVGLLGDLAG ([PEG12′]KRVIRMCLGVGLLGDLAG) [SEQ ID NO: 16] | 3980 (569) pg/mL | 33.4 | 54.6 | 79.8 | 104 | –
B1 | – | – | – | – | – | Percent Protection of Neuronal Network [2]: 95%; Percent Survival of Neurons [2]: 98%
